# In US20070166547A1, “Use of a layer consisting of hydrophobic linear, or two-dimensional polycyclic aromatics as a barrier layer or an encapsulation and electric components constructed with a layer of this type and comprising organic polymers” (priority 2003, published 2007):
# Marks after values point to notes of the source that are not given here.
# How the values were obtained:
# [1] = system: adenosine-sensitive receptors of thrombocytes; assay: ADP-induced aggregation of thrombocytes in vitro (Born method); assay type: cell-based, rabbit; conditions: 3 min incubation, ADP 10^−5 M
# Method: The compounds according to the invention were studied for the effect of aggregation of thrombocytes induced by a preliminary introduction of a solution of an aggregation inductor with a competing introduction of the compounds according to the invention.
# The aggregation of thrombocytes was studied by the Born method based on determination of the changes in the optical density of plasma enriched with thrombocytes after its incubation with an aggregation inductor.
# Adenozinediphosphoric acid (ADP) was selected as an aggregation inductor, which in fact is an aggregation generator. Use was made of a sample (registration number 885) of the Sigma Diagnostics Company (USA) in final concentration of 10^−5 M.
# The experiments were carried out on male rabbits of the “Chinchilla” breed having a mass of 2.7±0.3 kg. 18-24 hours prior to the experiment they were deprived of feed while preserving free access to water.
# To obtain plasma enriched with thrombocytes, blood was taken from a cut of a marginal vein of the rabbit ear, the sample was stabilized with 3.8% of sodium citrate solution in a ratio of 9:1 and centrifuged at 200 g (1000 rev/min) for 10 minutes. The top supernatant layer enriched with thrombocytes was transferred by an automatic dropper into a silicone test tube and kept at 37° C. The plasma enriched with thrombocytes contained, on the average, […]. If this content exceeded the specified 3×10^8 blood platelets in 1 liter, this sample was diluted to the necessary concentration with plasma deprived of thrombocytes, which was obtained by centrifuging blood at 650 g during 10 minutes.
# The measurements of the optical density of the samples were made on two-channel aggregometer of the “Chronolog” Company (USA). A flask containing 490 mkl of plasma rich with thrombocytes was placed in a device, into which a magnetic agitator covered with Teflon was lowered. The index of maximum amplitude of aggregation (MA) in percent of a fall of the plasma optical density under effect of the aggregation inductor was recorded. The control index MA of plasma was compared with the MA of plasma incubated for 3 minutes with different concentrations of the compounds: from 10^−3 to 10^−7 in vitro experiments or with plasma obtained 15, 30, 60 and 120 minutes after intravenous administration of different doses of the compounds in vivo experiments.
# The process of aggregation of thrombocytes was recorded with the help of a computer; on the monitor screen the there were depicted curves reflecting changes of the optical density of the plasma enriched which was taken as a standard 100% compared to the optical density of the non-thrombocyte plasma taken for 0% content of thrombocytes.
# Under in vitro conditions a flask was filled with blood plasma enriched with thrombocytes, to which an aggregation inductor ADP was added at a concentration of 10^−5 M, incubated for 3 minutes, and then the compounds according to the invention were introduced directly into the flask. Their action by aggregation of thrombocytes was studied after 3-minute incubation in a wide range of concentrations from 10^−3 to 10^−7 M to minimum concentration of 10^−7 M not inducing no effect of suppressing the aggregation.
# plasma hemostasis = assay: Thrombin time after intravenous administration; assay type: in vivo, rabbit
# Method: The investigations were performed on 72 rabbits of the “Chinchilla” breed with a mass of 2.5±0.3 kg, who were administered which solutions of compounds 2, 15, 21, 37 in doses of 15, 30 and 60 mg/kg intravenously. The experiments included the thrombin-test (series No. 7300) and the coagulability-test (series No. 5000) purchased from the scientific-and-production association (SPA) “Renam”, thromboplastin (series No. 240600) and calcium chloride purchased from the SPA “MedioLab”
# The static parameters of the blood and plasma coagulation (partial activated thromboplastin time, thrombin time, maximum coagulation activity (test for auto coagulation) were determined using the Behnk Electronic coagulometer (Germany). The operating principle of this instrument is based on the fact that the formed blood clot breaks the contacts of the pulse counter in the flask-pin circuit, said pin permanently oscillating in a vertical plane. The moment of formation of the clot is registered by stopping the stop watch hand.
# The measurements were effected at a constant temperature of 37° C. maintained by a temperature control unit.
# The “thrombin time” characterizes the rate of transformation of fibrinogen into fibrin. It was determined by measuring the coagulation time of plasma deprived of thrombocytes under the effect of thrombin standardized by the control plasma.
# 0.2 ml of a thrombin solution was added to 0.2 ml of the test blood plasma of experimental animals, from whom the blood was taken 15, 30, 60 and 120 minutes after the intravenous administration of compounds 2, 15, 21, 37 according to the invention in doses of 15, 30, 60 mg/kg incubated for 1 minute at a temperature of 37° C. and the time of formation of clot T2 in seconds in a coagulometer of the Behnk Electronic Company (Germany).
Structure (SMILES),"MA - fall of optical density of plasma, % to the standard ([1]; 10^−3 M)","MA - fall of optical density of plasma, % to the standard ([1]; 10^−4 M)","MA - fall of optical density of plasma, % to the standard ([1]; 10^−5 M)","MA - drop of optical density, % compared to control ([1]; 10^−6 M)","MA - drop of optical density, % compared to control ([1]; 10^−7 M)","T2, s After 120 minutes (thrombin time) (plasma hemostasis; dose 15.0 mg/kg intravenously)","T2, s after 15 minutes (thrombin time) (plasma hemostasis; dose 15.0 mg/kg intravenously)","T2, s after 30 minutes (thrombin time) (plasma hemostasis; dose 15.0 mg/kg intravenously)","T2, s after 60 minutes (thrombin time) (plasma hemostasis; dose 15.0 mg/kg intravenously)","T2, s After 120 minutes (thrombin time) (plasma hemostasis; dose 30.0 mg/kg intravenously)","T2, s after 15 minutes (thrombin time) (plasma hemostasis; dose 30.0 mg/kg intravenously)","T2, s after 30 minutes (thrombin time) (plasma hemostasis; dose 30.0 mg/kg intravenously)","T2, s after 60 minutes (thrombin time) (plasma hemostasis; dose 30.0 mg/kg intravenously)","T2, s After 120 minutes (thrombin time) (plasma hemostasis; dose 60.0 mg/kg intravenously)","T2, s after 15 minutes (thrombin time) (plasma hemostasis; dose 60.0 mg/kg intravenously)","T2, s after 30 minutes (thrombin time) (plasma hemostasis; dose 60.0 mg/kg intravenously)","T2, s after 60 minutes (thrombin time) (plasma hemostasis; dose 60.0 mg/kg intravenously)"
"O=c1[nH][nH]c(=O)c2c(Br)ncnc12.[K] [Compound 37, potassium salt of 4-bromine-pyrimido[4,5-D]-6H-pyridazine-5,8-dione]",46.9 ± 2.7 %,47.1 ± 2.0 %,40.6 ± 1.7 %,48.1 ± 2.9%,50.1 ± 1.0%,15.6* s,16.9* s,18.2* s,16.3* s,15.2* s,19.5* s,20.3* s,21.0* s,15.0* s,16.6* s,17.8* s,16.2* s
"O=c1[nH][nH]c(=O)c2nccnc12.[Li] [Compound 25, lithium salt of pyrazine[2,3-d]-6H-pyridazine-5,8-dione]",48.2 ± 2.9 %,48.6 ± 2.0 %,43.4 ± 3.2 %,50.3 ± 2.1%,50.1 ± 3.0%,,,,,,,,,,,,
"Nc1ccnc2c(=O)n([C@@H]3O[C@H](CO)[C@@H](O)[C@H]3O)[nH]c(=O)c12 [Compound 2, 4-amino-7-(β-D-ribofuranosile)pyrido[2,3-d]-6H-pyridazine-5,8-dione]",51.4 ± 2.7 %,50.4 ± 1.7 %,48.2 ± 1.0 %,50.1 ± 2.0%,50.8 ± 2.2%,15.3* s,16.2* s,17.0* s,16.0* s,15.3* s,17.8* s,18.4* s,19.2* s,15.3* s,16.0* s,16.9* s,15.9* s
"Nc1ncc2c(=O)[nH][nH]c(=O)c2n1 [Compound 36, 2-amino-pyrimido[4,5-d]-6H-pyridazine-5,8-dione]",45.8 ± 2.3 %,46.9 ± 2.4 %,40.1 ± 2.0 %,49.3 ± 2.6%,49.7 ± 1.8%,,,,,,,,,,,,
"Nc1cnc2c(=O)n([C@@H]3O[C@H](CO)[C@@H](O)[C@H]3O)[nH]c(=O)c2n1.[Na] [Compound 21, sodium salt of 3-amino-7-(β-D-ribofuranosile)pyrazine[2,3-d]-6H-pyridazine-5,8-dione]",47.1 ± 3.0 %,49.2 ± 2.1 %,41.8 ± 2.4 %,49.6 ± 1.7%,49.7 ± 2.1%,15.7* s,16.4* s,17.7* s,16.1* s,15.6* s,17.9* s,18.8* s,19.0* s,15.7* s,16.2* s,17.7* s,16.3* s
"Nc1cccc2c(=O)[nH][nH]c(=O)c12.[Na] [Compound 15, sodium salt of 5-amino-benzo[d]-3H-pyridazine-1,4-dione]",44.8 ± 2.8 %,46.3 ± 1.7 %,39.8 ± 3.1 %,47.3 ± 1.8 %,49.3 ± 1.4%,15.5* s,17.0* s,18.5* s,16.5* s,15.0* s,19.7* s,20.5* s,21.3* s,14.7* s,16.8* s,18.0* s,16.5* s
